In patent publication US9650379B2 (CHONG KUN DANG PHARMACEUTICAL CORP., priority 2013, dated 2017):

Key:
HDAC6 human recombinant = molecular target: T1, HDAC6 human recombinant (Homo sapiens, UniProt Q9UBN7); assay: Inhibition of HDAC6 activity (fluorimetric assay); type: biochemical; settings: test concentrations 0.1, 1, 10, 100 and 1000 nM; 37° C., 60 minutes
T1 construct: purchased Calbiochem 382180
T1 sequence (Q9UBN7 1-1215): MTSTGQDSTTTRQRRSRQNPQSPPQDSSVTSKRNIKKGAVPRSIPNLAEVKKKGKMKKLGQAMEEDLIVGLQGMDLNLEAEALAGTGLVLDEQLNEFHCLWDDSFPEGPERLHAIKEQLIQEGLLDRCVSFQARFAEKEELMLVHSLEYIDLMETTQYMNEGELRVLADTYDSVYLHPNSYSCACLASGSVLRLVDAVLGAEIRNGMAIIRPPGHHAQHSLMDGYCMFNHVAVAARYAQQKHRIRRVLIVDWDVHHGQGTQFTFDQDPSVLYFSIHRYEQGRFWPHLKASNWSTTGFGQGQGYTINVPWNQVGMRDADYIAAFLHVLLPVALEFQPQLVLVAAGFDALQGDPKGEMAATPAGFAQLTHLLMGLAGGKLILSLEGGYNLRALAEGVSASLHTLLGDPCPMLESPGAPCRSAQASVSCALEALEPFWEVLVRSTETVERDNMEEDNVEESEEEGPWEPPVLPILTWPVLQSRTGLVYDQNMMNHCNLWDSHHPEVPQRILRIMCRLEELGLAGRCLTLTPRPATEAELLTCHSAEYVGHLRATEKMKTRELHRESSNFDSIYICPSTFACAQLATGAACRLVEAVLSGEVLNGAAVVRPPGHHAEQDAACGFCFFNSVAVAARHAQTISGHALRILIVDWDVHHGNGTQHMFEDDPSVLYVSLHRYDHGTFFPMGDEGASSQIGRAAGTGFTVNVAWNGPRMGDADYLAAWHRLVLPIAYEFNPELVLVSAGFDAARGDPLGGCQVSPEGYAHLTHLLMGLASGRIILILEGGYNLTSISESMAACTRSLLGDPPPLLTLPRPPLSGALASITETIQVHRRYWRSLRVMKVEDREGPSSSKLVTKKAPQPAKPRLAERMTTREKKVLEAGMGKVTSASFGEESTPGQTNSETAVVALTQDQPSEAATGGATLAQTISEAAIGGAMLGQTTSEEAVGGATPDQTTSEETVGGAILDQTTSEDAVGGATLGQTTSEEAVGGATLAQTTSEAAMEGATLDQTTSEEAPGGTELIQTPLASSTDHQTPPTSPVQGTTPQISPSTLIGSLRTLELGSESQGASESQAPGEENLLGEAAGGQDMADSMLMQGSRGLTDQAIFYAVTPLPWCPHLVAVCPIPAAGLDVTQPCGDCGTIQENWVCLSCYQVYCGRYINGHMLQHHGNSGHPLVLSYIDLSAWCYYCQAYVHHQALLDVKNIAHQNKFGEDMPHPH
Procedure, shortened: (§1)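 HDAC1 tested with the kit assay mixture at 100, 1000 and 10000 nM compound; recombinant human HDAC6 at 0.1, 1, 10, 100 and 1000 nM. Reaction ran 60 min at 37° C, then developer was added for 30 min at 37° C and fluorescence quantified.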

HDAC1 = molecular target: T2, HDAC1 (Homo sapiens, UniProt Q13547); assay: Inhibition of HDAC1 activity (HDAC1 fluorimetric drug discovery assay kit); type: biochemical; settings: test concentrations 100, 1000 and 10000 nM; 37° C., 60 minutes
T2 construct: purchased Enzolifesciences BML-AK511
Procedure, shortened: as §1

[1] = test system: tubulin acetylation (HDAC6) in RPMI8226 cells; assay: Western blot analysis of tubulin acetylation in cells; type: cell-based; settings: 24 hours, Western blot (FIG. 1)
Protocol: Specifically, RPMI8226 cells were seeded into a six-well plate at a density of 1.0×10^6 cells/well, and then treated with varying concentrations of each of compounds 636 and 642. After 24 hours, protein was extracted from the cells using RIPA buffer and quantified by the Bradford method. 25 μg of the protein was dissolved to sample buffer and electrophoresed on 4-12% gradient gel, and the gel was transferred to a nitrocellulose membrane for 50 minutes. The membrane was blocked in 5% skim milk solution for 1 hour. Anti-acetyl H3 antibody (1:2,000), anti-acetyl H4 antibody (1:5,000), anti-acetyl tubulin antibody (1:5,000) and anti-β-actin antibody (1:10,000) were added to 5% skim milk, and the membrane was immersed in the skim milk and allowed to react at 4° C. for 16 hours, after which it was washed three times with 1×TBS-T for 10 minutes each washing. IgG-HRP antibody (1:5,000) was added to 5% skim milk, and the membrane was immersed in the skim milk and allowed to react at room temperature for 40 minutes, after which it was washed three times with 1×TBS-T for 10 minutes each washing. Detection was performed by LAS 3000 using ECL solution.

[2] = test system: CTLA4 expression in iTreg (CD4+CD25+Foxp3+) cells; assay: CTLA4 assay in induced regulatory T cells; type: cell-based, C57BL/6 mouse; settings: 6 days incubation
Description: In order to evaluate the effect of the compounds of the present invention on the expression of CTLA4, FOXP3+ induced regulatory T cells were induced from effector T cells (CD4+CD25−) isolated from the spleen of C57BL/6 mouse. Specifically, 6-week-old C57BL/6 mouse were purchased, and spleens were isolated therefrom, and separated into single cells by treatment with collagenase D. Effector T cells (CD4+CD25−, Teff) were separated from the mouse spleen cells using a CD4+CD25 regulatory T cell isolation kit (Miltenyi Biotec). Teff were plated on a 48-well plate at a density of 5×10^5 cells/well, and activated by adding a […] mAb-conjugated magnetic bead (T cell Activation/Expansion kit, Miltenyi Biotec) thereto. The activated cells were treated with TGF-β2 and each compound, and after 6 days, the cells were subjected to cell surface staining with CD4-PECy7 and CD25-APC (eBioscience) and to intracellular staining with FOXP3-Alexafluor488 and CTLA4-PE (eBioscience). Then, a change in the expression of CTLA4 in the induced regulatory T cells (iTreg) was analyzed by FACS Canto II (BD bioscience).

[3] = test system: proliferation of effector T cells (Teff) co-cultured with Treg; assay: Regulatory T cell suppression function, Treg/Teff co-culture; type: cell-based, C57BL/6 mouse; settings: Teff:Treg 2:1 co-culture, 3 days; vehicle group 27% suppression
Protocol: The effect of compound 636 on the proliferation of effector T cells in the co-culture condition of the regulatory T cells (Treg) and effector T cells (Teff) isolated from the spleen of C57BL/6 mouse was evaluated.
Specifically, 6-week-old C57BL/6 mouse were purchased, and spleens were isolated therefrom, and separated into single cells by treatment with collagenase D. Teff (CD4^+CD25^−) and Treg (CD4^+CD25^high) were isolated from the mouse spleen cells using a CD4^+CD25^high regulatory T cell isolation kit (Miltenyi Biotec). The Teff were stained with 5 μM Cell Proliferation Dye eFluor® 670 (eBioscience) at 37° C. under a light-shielded condition for 10 minutes, and incubated in cold complete media on ice for 5 minutes to stop the staining reaction, and then washed three times with complete media. The eFluor-stained effector T cells and the Treg were co-cultured on a U-bottom plate at a ratio of 2:1, and activated by adding a CD3εCD28 mAb-conjugated magnetic bead (T cell Activation/Expansion kit, Miltenyi Biotec) thereto. The activated cells were treated with compound 636, and after 3 days, the proliferation of the Teff was evaluated by analyzing the dilution pattern of eFluor® 670 with FACS Canto II (BD bioscience).

effector T cells (Teff) = assay: Viability (death) of Teff cells; type: cell-based, C57BL/6 mouse; settings: treated for 24 hours

T2 sequence (Q13547 whole entry): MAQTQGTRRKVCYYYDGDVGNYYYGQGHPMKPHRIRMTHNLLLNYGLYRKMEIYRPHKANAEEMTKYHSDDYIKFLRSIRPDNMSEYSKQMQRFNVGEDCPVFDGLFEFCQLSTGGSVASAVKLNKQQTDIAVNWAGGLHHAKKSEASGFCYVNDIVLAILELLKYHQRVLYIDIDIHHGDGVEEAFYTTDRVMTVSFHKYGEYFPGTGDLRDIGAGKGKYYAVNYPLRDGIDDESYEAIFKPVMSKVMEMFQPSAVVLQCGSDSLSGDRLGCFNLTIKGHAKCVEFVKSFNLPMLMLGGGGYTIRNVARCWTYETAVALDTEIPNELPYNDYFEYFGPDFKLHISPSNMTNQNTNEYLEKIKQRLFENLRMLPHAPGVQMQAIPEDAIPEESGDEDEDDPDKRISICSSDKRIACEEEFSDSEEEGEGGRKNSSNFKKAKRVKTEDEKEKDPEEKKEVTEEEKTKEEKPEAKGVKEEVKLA

IC50 (HDAC6 human recombinant) [nM] | IC50 (HDAC1) [nM] | Compound | compound concentration at which tubulin acetylation (HDAC6) appeared [1] | increase of the expression of CTLA4 in the iTreg (CD4+CD25+Foxp3+) population ([2]; concentrations of 100 and 500 nM) | suppression ratio of Teff relative to the vehicle group [3] [times] | viability of the Teff versus non-drug-treated group (effector T cells (Teff)) | increase of the expression of CTLA4 in the iTreg cells ([2]; concentration not stated separately) [times]
8 | 930 | CC(C)(F)CN1CCC(c2ccnc3c2ccn3Cc2ccc(C(=O)NO)cc2)CC1 [Compound 636, 4-((4-(1-(2-fluoro-2-methylpropyl)piperidin-4-yl)-1H-pyrrolo[2,3-b]pyridin-1-yl)methyl)-N-hydroxybenzamide] | about 300 nM | 1.5-2 times | 2 | did not differ | 
9 | 4310 | CC(C)(F)CN1CCN(c2ccnc3c2ccn3Cc2ccc(C(=O)NO)cc2)CC1 [Compound 642, 4-((4-(4-(2-fluoro-2-methylpropyl)piperazin-1-yl)-1H-pyrrolo[2,3-b]pyridin-1-yl)methyl)-N-hydroxybenzamide] | about 300 nM |  |  |  | ≥ 2
